According to patent US20150105252A1, “SUBSTITUTED PYRAZOLES AS HERBICIDES” (E I DU PONT DE NEMOURS AND COMPANY, priority 2013, published 2015):

How the values were obtained:
Test in all cases: Test F preemergence
hairy beggarticks = type: in vivo, Bidens pilosa
Source text: (§1) Seeds of plant species selected from corn (Zea mays), soybean (Glycine max), velvetleaf (Abutilon theophrasti), lambsquarters (Chenopodium album), wild poinsettia (Euphorbia heterophylla), pigweed, palmer (palmer pigweed, Amaranthus palmeri), common waterhemp (Amaranthus rudis), surinam grass (Brachiaria decumbens), large crabgrass (Digitaria sanguinalis), crabgrass, Brazil (Brazilian crabgrass, Digitaria horizontalis), fall panicum (Panicum dichotomiflorum), giant foxtail (Setaria faberii), green foxtail (Setaria viridis), goosegrass (Eleusine indica), johnsongrass (Sorghum halepense), common ragweed (Ambrosia elation), barnyardgrass (Echinochloa crus-galli), southern sandbur (Cenchrus echinatus), arrowleaf sida (Sida rhombifolia), Italian ryegrass (Lolium multiflorum), dayflower, VA (Virginia (VA) dayflower, Commelina virginica), field bindweed (Convolvulus arvensis), cocklebur (common cocklebur, Xanthium strumarium), morningglory (Ipomoea coccinea), nightshade (eastern black nightshade, Solanum ptycanthum), kochia (Kochia scoparia), yellow nutsedge (Cyperus esculentus), and hairy beggarticks (Bidens pilosa), were planted into a silt loam soil and treated preemergence with test chemicals formulated in a non-phytotoxic solvent mixture which included a surfactant.
(§2) At the same time, plants from these crop and weed species and also horseweed (Canada horseweed, Conyza canadensis), smartweed (ladysthumb smartweed, Polygonum persicaria), waterhemp_RES1, (ALS & Triazine resistant common waterhemp, Amaranthus rudis), and waterhemp_RES2, (ALS & HPPD resistant common waterhemp, Amaranthus rudis) were treated with postemergence applications of test chemicals formulated in the same manner. Plants ranged in height from 2 to 18 cm for postemergence treatments (1- to 4-leaf stage). Treated plants and controls were maintained in a greenhouse for 14 to 21 days, after which time all species were compared to controls and visually evaluated. Plant response ratings, summarized in Table F, are based on a scale of 0 to 100 where 0 is no effect and 100 is complete control. A dash (-) response means no test result.

arrowleaf sida = type: in vivo, Sida rhombifolia
Source text: as §1, §2

giant foxtail = type: in vivo, Setaria faberii
Source text: as §1, §2

johnsongrass = type: in vivo, Sorghum halepense
Source text: as §1, §2

[1] = Preemergence, 62 g ai/ha, scale 0 to 100
[2] = Preemergence, 125 g ai/ha, scale 0 to 100
[3] = preemergence, 8 g ai/ha, scale 0 to 100, 100 is complete control
[4] = preemergence, 16 g ai/ha, scale 0 to 100, 100 is complete control
[5] = Preemergence, 16 g ai/ha, scale 0 to 100
[6] = Preemergence, 250 g ai/ha, scale 0 to 100

SMILES	Plant response rating, Hairy Beggarticks (hairy beggarticks; [1])	Plant response rating, Hairy Beggarticks (hairy beggarticks; [2])	Plant response rating, Hairy Beggarticks (hairy beggarticks; [3])	Plant response rating, Hairy Beggarticks (hairy beggarticks; [4])	Plant response rating, Arrowleaf Sida (arrowleaf sida; [5])	Plant response rating, Arrowleaf Sida (arrowleaf sida; [1])	Plant response rating, Arrowleaf Sida (arrowleaf sida; [2])	Plant response rating, Arrowleaf Sida (arrowleaf sida; [3])	Plant response rating, Arrowleaf Sida (arrowleaf sida; [4])	Plant response rating, Giant Foxtail (giant foxtail; [1])	Plant response rating, Giant Foxtail (giant foxtail; [2])	Plant response rating, Giant Foxtail (giant foxtail; [3])	Plant response rating, Giant Foxtail (giant foxtail; [4])	Plant response rating, Johnsongrass (johnsongrass; [1])	Plant response rating, Johnsongrass (johnsongrass; [2])	Plant response rating, Johnsongrass (johnsongrass; [3])	Plant response rating, Johnsongrass (johnsongrass; [4])	further results
CCNC(=O)c1cc(CC)n(Cc2ccnc(C(F)(F)F)c2)n1 [Compound 196]	15	35	0	0	0	5	70	0	0	70	100	0	0	35	80	0	0	
Cc1cc(C(=O)NC(C)C)nn1Cc1ccnc(C(F)(F)F)c1 [Compound 197]	25	20	0	0	5	5	10	0	5	20	100	0	0	0	20	0	0	
CCc1cc(C(=O)NC2CC2)nn1Cc1ccnc(OCC(F)(F)F)c1 [Compound 200]	0	0		0	0	5	35		0	0	5		0	20	70		0	Plant response rating, Hairy Beggarticks (hairy beggarticks; [6]): 40; Plant response rating, Arrowleaf Sida (arrowleaf sida; [6]): 80; Plant response rating, Giant Foxtail (giant foxtail; [6]): 40; Plant response rating, Johnsongrass (johnsongrass; [6]): 75
